Results on two compounds are retold here after US11020419B2, “Use of polyinosinic-polycytidylic acid compositions in treatment of malignant effusion” (BIOSYNGEN PTE, LTD, priority 2016, dated 2021).

The structures appear in SMILES notation.

The subject of data set [1] is H22 cells. The procedure: MPE usually refers to tumors originated from the chest metastasis to the pleural space, which leads to the formation of excessive fluid containing cancerous cells and it accounts for about 50% of all pleural effusions. […] Materials: mice liver cancer cell line line (purchased from CCTCC), BAL/c mice (female, 6-7 weeks old, 18-22 g, SPF, purchased from Wei Tong Li Hua, Beijing). BSG, 2 mg/ml, produced in house. Comparator CTX (cyclophosphamide, 0.2 g, from Baxter Oncology GmbH, batch no. 6D111A). Sodium Chloride for Injection (2.25 g, 250 ml, 0.9%, from Zhejiang Tianrui, pharmaceutica, batch no. 116102506).
Methods: Thaw H22 cells, adjust density to 1×10^7 cells/ml, then inject 3 mice, 0.2 ml each. Collect excessive fluid from the injected mice on after 7 days and adjust cell density to 5×10^5/ml, inject another […] into the peritoneal muscle, 0.2 ml/mouse. Divided the mice randomly into 6 groups of 14 mice each three days post-inoculation, among the 14 mice of each group, 6 will be kept separately for survival study (see Table 4b). Treat mice continuously (grouping detail see Table 4a and 4b).
Observations: 1) record mice behavior and skin/fur glossiness daily, measure body weights every two days; 2) 5 h post-treatment on D6, obtain blood from eye venous plexus until death and separate serum for white blood cell count (at least 20 ul); after obtaining blood, execute mice by cervical dislocation, measure pleural fluid volume and obtain thymus, spleen and lung, record organ weight; 3) record survival status of the rest of mice in Groups A2 to E2, calculate average increase in life span (ILS) using formula=[(ave. survival days of treatment groups/ave. survival days of control group)−1]×100%; 4) calculate rate of MPE suppression (%)=(1−ave. MPE volume of treatment groups/ave. MPE volume of control group)×100%.

For data set [2], the system named is S180 cell line. Kind of data set: Concomitant use of BSG with chemotherapeutic drugs in S180 cell line induced MA (Example 4). Conditions: for Ascites Vol.: D12 (2 d post-treatment), 7 days treatment from 4 d post-inoculation. It is filed as in vivo, mice. The procedure: Materials: S180 cell line (purchased from CCTCC), female BAL/c mice (6-7 weeks old purchased from Centre of Laboratory Animal for Medical Science, Guangdong), BSG (2 mg/ml, produced in house), DDP (cisplatin, 5 mg/ml, from Jingasu Hansoh Pharma, batch no. 160603), CTX (cyclophosphamide), Sodium Chloride for Injection (2.25 g, 250 ml, 0.9%, from Zhejiang Tianrui, pharmaceutica, batch no. 116102506). Methods: 1. MA induction and propagation in mice: take logarithmic growth phase cells, adjust cell density to 5×10^6/ml, inject mice (i.p., 0.4 ml per animal). Collect MA fluid from mice 7-8 days post inoculation, adjust cell density to 2×10^7/ml and inject another 4 mice (i.p., 0.4 ml per animal). Collect MA fluid again from mice 6-7 days post inoculation, adjust cell density to 5×10^6/ml and inoculate 2×10^6 cells to 48 mice before grouping. 2. Grouping: randomly divide mice 4 d post-inoculation according to body weight into A, B, C, D, E, F groups with 8 mice per group. Treat mice with A. BSG (7.5 mg/kg), B. CTX (50 mg/kg), C. DDP (0.5 mg/kg), D. BSG (7.5 mg/kg)+CTX (50 mg/kg), E. BSG (7.5 mg/kg)+DDP (0.5 mg/kg), F. N.S control for 7 days (Grouping detail see Table 7).
3. Observations: 1) record mice behavior and skin/fur glossiness daily, measure body weights and abdominal girth every two days; 2) 2 d post-treatment (D12), obtain blood from eye venous plexus and separate serum for while blood cell count (at least 20 ul). After obtaining blood, execute mice by cervical dislocation, measure pleural fluid volume and record color of fluid; 3) calculate rate of MPE suppression (%)=(1−ave. MPE volume of treatment groups/ave. MA volume of control group)×100%.

For data set [3], the system named is mice liver cancer cell line H22. Kind of data set: BSG in preventing and controlling MA in H22 mouse model (Example 2). It is filed as in vivo. The settings on record: for number of mice with nodules at the 7th day post inoculation: 9 mice each; for No. mice survive through Day 15: 9 mice/group; for ILS (average increase in life span): vs control group. The procedure: Materials: mice liver cancer cell line H22; female mice 6-8 weeks old, 18-22 g. BSG, containing 2 mg/ml PIC, produced in-house; comparator, DDP purchased from Jiangzu Haoseng; negative control normal saline (N.S).
Methods: Thaw H22 cell line, wash before inject intraperitoneally (i.p.) into 2 female BALB/c mice, and wait 10 days for peritoneal fluid accumulation. Draw accumulated fluid on D10, adjust the cell density at 1×10^7/ml. Inject another 54 mice via i.p. route with 0.2 ml of the fluid containing total of 2×10^6 cancerous cells. Pick 18 mice and divide into 2 groups at random 24 h post-inoculation. Each group of mice receives either A. BSG (subcutaneous, s.c. 200 ug/ul) or B. DDP (intraperitoneal, i.p. 20 ug/ul) at dosage set out below as a preventive measure. Treat mice daily for 14 days. The rest of mice were divided into 4 groups at random 5 d post-inoculation, namely C. BSG group (s.c.), D. BSG group (i.p.), E. DDP group (i.p.), and F. control group (s.c., N.S). Treat mice daily for 10 days (grouping detail see table below).
MA volume of treatment groups/ave. MA volume of control group)×100%.

The mark [4] stands for this setting: survival groups, 6 mice each, i.m., BSG 7.5 mg/kg, CTX 30 mg/kg, alone or combined.
Where [5] appears, read: BSG 7.5 mg/kg i.m., CTX 50 mg/kg i.m., DDP 0.5 mg/kg i.p., alone or combined.
Setting [6] is: D12, BSG 7.5 mg/kg i.m., CTX 50 mg/kg i.m., DDP 0.5 mg/kg i.p., alone or combined.
Setting [7] is: preventive, from 24 h post-inoculation, daily 14 days, BSG 200 ug s.c. (Group A), DDP 20 ug i.p. (Group B).
[8] abbreviates: treatment from 5 d post-inoculation, daily 10 days, i.p.: BSG 200 ug (Group D), DDP 20 ug (Group E).

`O=P1(N(CCCl)CCCl)NCCCO1` (stereo not shown) [CTX, cyclophosphamide]: the “body weight on D7” value in data set [1] (BSG high dose 7.5 mg/kg, CTX 30 mg/kg, combined, i.m., FIG. 5) was “lower body weight”. Also, the “organ weight post treatment (thymus and spleen)” value in data set [1] (CTX 30 mg/kg i.m., FIG. 4) was “lower average weight of organ”. For the same compound, the “Ave. survival” value in data set [1] (i.m., BSG 7.5 mg/kg, CTX 30 mg/kg, alone or combined) is listed as 6.00 days. In addition, the “ILS (average increase in life span)” value in data set [1] (i.m., BSG 7.5 mg/kg, CTX 30 mg/kg, alone or combined, vs control, % only in formula b145) came to 2.86%. Also, in data set [1] (setting [4]), the “No. of Mice D 3” value is recorded as 6, the “No. of Mice D 4” value amounted to 6, the “No. of Mice D 5” value was determined as 4 and the “No. of Mice D 6” value worked out at 1. Further, in data set [1] (setting [4]), the “No. of Mice D 7” value is 1, the “No. of Mice D 8” value was 0 and the “No. of Mice D 9” value was 0. In data set [2] (setting [5]), the “Ascites Vol.” value is on record as 2.84 mL. Moreover, the MA color recorded in data set [2] (setting [6]) is 3 mice with bloody ascites, 4 faintly red and 1 milky color. In data set [2] (D12, BSG 7.5 mg/kg i.m., CTX 50 mg/kg i.m., DDP 0.5 mg/kg i.p., alone or combined, vs N.S control), the “MA Suppression” value is 63.5%.

Consider `N.N.[Cl][Pt][Cl]` [DDP, cisplatin], for which the “average cancerous cells in ascites” value in data set [3] (cell count 2D post-treatment (D15), preventive: BSG 200 ug s.c. (Group A), DDP 20 ug i.p. (Group B)) was 3.17 10^6/ml. Moreover, in data set [3] (i.p. administration, BSG 200 ug, DDP 20 ug daily, D15), the “ascites volume (on average)” value is 1.7 mL. Moreover, in data set [3] (preventive groups, BSG 200 ug s.c. (Group A, small size nodule), DDP 20 ug i.p. (Group B, medium size nodules)), the “number of mice with nodules at the 7th day post inoculation” value is 6. Also, in data set [3] (setting [7]), the “No. mice survive through Day 15” value worked out at 6, the “Ave. survival” value turned out to be 14.4 days and the “ILS (average increase in life span)” value turned out to be 72%. Moreover, the “number of mice with nodules at the 7th day post inoculation” value in data set [3] (treatment from 5 d, i.p.: BSG 200 ug (Group D), DDP 20 ug (Group E), medium size nodules) stood at 6. In addition, in data set [3] (setting [8]), the “No. mice survive through Day 15” value is 2, the “Ave. survival” value was 12.8 days and the “ILS (average increase in life span)” value stood at 53%. The “number of mice not alive until D12” value in data set [2] (8 mice per group, DDP 0.5 mg/kg i.p. (Group C), BSG 7.5 mg/kg + CTX 50 mg/kg (Group D)) amounted to 4. Also, the “Ascites Vol.” value in data set [2] (setting [5]) came to 5.63 mL. Moreover, in data set [2] (setting [6]), the MA color recorded entry is recorded as “bloody ascites with one mouse having milky color”. Further, the “tumor burden and MA volume (body weight on D12)” value in data set [2] (survived mice, D12, FIG. 7) is “largest tumor burden and MA volume”.
